# Columns and labels:
# MBP-GGDEFpssE = experiment: Equilibrium dialysis assay of c-di-GMP binding by the PssE receptor; design: species or system L. monocytogenes
# Description: (§1) To test the prediction that the PssE protein acts as a c-di-GMP receptor, its GGDEF domain (“GGDEF” disclosed as SEQ ID NO: 3) containing the I-site as an MBP fusion (MBP-GGDEFpssE) (“GGDEF” disclosed as SEQ ID NO: 3) was overexpressed, and this protein was purified (FIG. 5A) and analyzed for its ability to bind c-di-GMP in vitro using equilibrium dialysis. […] This value falls within the range of physiologically relevant intracellular c-di-GMP concentrations measured in other bacteria that are believed to be in the submicromolar to low micromolar range. […] Therefore, PssE is a bonafide c-di-GMP receptor that is predicted to transfer the c-di-GMP signal to activate synthesis of the listerial Pss EPS.
# For purification of MBP::PdeC and MBP::GGDEFpssE fusions (“GGDEF” disclosed as SEQ ID NO: 3), IPTG (final concentration, 0.2 mM) was added to exponentially (A600, 0.6-0.8) growing E. coli DH5α containing appropriate plasmids. After 2-h induction, cells were collected by centrifugation. […]
# (§2) Equilibrium dialysis experiments were performed as previously described. […] The nucleotide concentrations were quantified by HPLC. Binding constants were calculated by the GraphPad Prism software, version 4.03 (GraphPad Software, San Diego, Calif.) using a nonlinear regression model.
# [1] = biological target: T1, Listeria monocytogenes PssE (Lmo0531), GGDEF domain (residues 107-285) containing the I-site, as MBP fusion (MBP::GGDEFpssE) (Listeria monocytogenes, UniProt Q8Y9J6); experiment: Equilibrium dialysis of c-di-GMP binding to the PssE receptor (MBP-GGDEFpssE)
# T1 construct: equilibrium dialysis
# Description: FIGS. 5A-5B: In vitro assay of c-di-GMP binding by the PssE receptor. […] The GGDEF domain of PssE (residues 107-285) (“GGDEF” disclosed as SEQ ID NO: 3) containing the putative I-site was fused downstream of MBP, MBP::GGDEFpssE (“GGDEF” disclosed as SEQ ID NO: 3), and used in c-di-GMP binding assays. […] Shown is the dependence of the ratio of bound cdi-GMP per protein in the dialysis chamber, where protein alone was loaded, versus concentration of free c-di-GMP at equilibrium.
# as §1
# For purification of MBP::PdeC and MBP::GGDEFpssE fusions (“GGDEF” disclosed as SEQ ID NO: 3), IPTG (final concentration, 0.2 mM) was added to exponentially (A600, 0.6-0.8) growing E. coli DH5α containing appropriate plasmids. After 2-h induction, cells were collected by centrifugation. Cell pellets were resuspended in a buffer containing 200 mM NaCl, 0.5 mM EDTA, 5 mM MgCl2, 20 mM Tris-HCl (pH 7.6), and 5% glycerol that also contained protease inhibitors. […]
# as §2
# L. monocytogenes = type: cell-based; settings: hydrogen peroxide 200 mM, benzalkonium chloride 100 ppm; 10 min, room temperature
# Description: Here, the role of L. monocytogenes EPS in providing tolerance to disinfection and desiccation was evaluated. […] To distinguish between the contribution of EPS versus EPS-independent c-di-GMP-responsive agents, included in the tests were the ΔpdeB/C/D ΔpssC mutant characterized by elevated intracellular c-di-GMP levels but defective in EPS production.
# Cultures were grown in HTM with 3% glucose at 37° C. for 24 h, at which point small uniform clumps are formed by the ΔpdeB/C/D strain. Aliquots (250 μl; 10^8 cfu/ml) of these cultures were mixed with disinfectants at 1:1 vol ratios in small glass tubes that also contained 0.1 g of acid washed glass beads (Sigma Life Sciences). Following a 10-min exposure to disinfectants at room temperature, D/E neutralizing broth (500 μl; Difco) was added. Samples were vigorously vortexed (for 5 min) and clumps of the ΔpdeB/C/D strain were dispersed due to the action of the glass beads. Serial dilutions were plated on BHI agar and colonies were counted following a 48-h incubation at 37° C.
# [2] = Solubility of listerial EPS preparations; type: physicochemical
# Description: Considering that chitin, a polymer of β-1,4-linked N-acetylglucosamine, is also insoluble, but chitosan, which is obtained from chitin by N-deacetylation, is soluble in dilute acid, ManNAc-Gal EPS may also be made soluble by N-deacetylation. […] To identify the sugars belonging to the anomeric signals, a series of 2-D NMR spectra was acquired. COSY and TOCSY spectra were used to assign the proton chemical shifts, and an HSQC spectrum was obtained to assign the carbon chemical shifts of the monosaccharide residues present in EPS-N. The residues and their linkage positions were identified from the proton and carbon chemical shifts. A NOESY spectrum was used to determine the monosaccharide sequence. The spectra clearly identified one of the anomeric peaks as belonging to a terminal α-galactopyranose (α-Galp) residue (Table 3).
# N-deacetylation was performed to obtain soluble EPS material for NMR studies. The insoluble EPS sample was suspended in 300 μl of 50% NaOH and heated to 80° C. for 1 h. After cooling to room temperature, the sample was diluted with 1 ml of water and acidified with glacial acetic acid (final pH˜4-5). The sample was dialyzed against running deionized water for 36 h using a 3,500 Da regenerated cellulose membrane and lyophilized. This material was designated ‘EPS-N’. EPS-N was dissolved in 5 ml of 0.4 M HCl and heated at 110° C. for 2 h for partial hydrolysis. […]
# T1 sequence (Q8Y9J6 entry or part of it): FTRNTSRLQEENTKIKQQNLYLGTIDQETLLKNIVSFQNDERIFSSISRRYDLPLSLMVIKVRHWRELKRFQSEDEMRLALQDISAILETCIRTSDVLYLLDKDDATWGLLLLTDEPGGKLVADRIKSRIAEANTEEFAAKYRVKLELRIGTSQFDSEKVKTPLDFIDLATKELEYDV
compound,measurement,setting,value
"Nc1nc2c(ncn2[C@@H]2O[C@@H]3COP(=O)(O)O[C@H]4[C@@H](O)[C@H](n5cnc6c(=O)[nH]c(N)nc65)O[C@@H]4COP(=O)(O)O[C@H]3[C@H]2O)c(=O)[nH]1 [c-di-GMP, Cyclic dimeric GMP]",Kd,"MBP-GGDEFpssE; 25 h, room temperature, protein 20 μM, c-di-GMP 1 to 50 μM, read-out: apparent Kd",790 ± 170 nM
same,"binding capacity, Bmax",MBP-GGDEFpssE; nonlinear regression,2.03±0.12 μM c-di-GMP (μM protein)^−1
same,Kd,[1],790 ± 170 nM
same,Bmax (binding capacity),"[1]; equilibrium dialysis, 25 h at room temperature",2.03±0.12 μM c-di-GMP (μM protein)^−1
same,c-di-GMP molecules bound per PssE molecule at saturation,[1]; from Bmax,two
OO [hydrogen peroxide],tolerance of ΔpdeB/C/D mutant compared to wild type or ΔpdeB/C/D ΔpssC mutant,L. monocytogenes,approximately 10^2 fold
benzalkonium chloride,tolerance of ΔpdeB/C/D mutant compared to wild type or ΔpdeB/C/D ΔpssC mutant,L. monocytogenes,approximately 10^2 fold
{4)-β-ManpNAc-(1-4)-[α-Galp-(1-6)]-β-ManpNAc-(1-} [ManNAc-Gal EPS],solubility of native material,[2],completely insoluble
